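Cells were grown in 96-well plates and exposed to each compound for 48 hours at five concentrations; endpoints were interpolated linearly between bracketing concentrations, or set to the highest concentration if not reached. GI50 is the concentration that inhibits growth by half.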 Activity calls are given as the source filed them. No stated cut-off is given here; in the data, active = GI50 up to about 1.1 µM and inactive = higher.
Key:
Experiment in all cases: NCI anticancer screen, dose series, 48 h
EKVX = test system: EKVX
HOP-92 = test system: HOP-92
K562 = test system: K562
KM12 = test system: KM12
NCI-H226 = test system: NCI-H226
OVCAR-3 = test system: OVCAR-3
OVCAR-5 = test system: OVCAR-5
SF-268 = test system: SF-268
SK-MEL-5 = test system: SK-MEL-5
SK-OV-3 = test system: SK-OV-3
SNB-19 = test system: SNB-19
SW-620 = test system: SW-620
TK-10 = test system: TK-10
UACC-257 = test system: UACC-257
UACC-62 = test system: UACC-62
DU-145 = test system: DU-145
Hs-578T = test system: Hs-578T
MCF7 = test system: MCF7
PC-3 = test system: PC-3

Measured: GI50

COc1ccc(C23c4ccc(OC)cc4CC2(c2ccc([N+](=O)[O-])cc2)Cc2cc(OC)ccc23)cc1 (stereo not given)
inactive: EKVX > 15.2 µM | HOP-92 > 21.9 µM | K562 > 37.6 µM | KM12 > 35.8 µM | NCI-H226 > 57.1 µM | OVCAR-3 > 39.2 µM | OVCAR-5 > 25.9 µM | SF-268 > 22.3 µM | SK-MEL-5 > 21.7 µM | SK-OV-3 > 28.2 µM | SNB-19 > 71.4 µM | SW-620 > 100 µM | TK-10 > 92.5 µM | UACC-257 > 51.3 µM | UACC-62 > 17.1 µM

CC(=O)NC(C)c1ccc(/N=N/N2CCCC2)cc1 (stereo not given)
inactive: DU-145 > 100 µM | EKVX > 100 µM | HOP-92 > 100 µM | Hs-578T > 100 µM | KM12 > 100 µM | MCF7 > 100 µM | NCI-H226 > 100 µM | OVCAR-3 > 100 µM | OVCAR-5 > 100 µM | PC-3 > 100 µM | SF-268 > 100 µM | SK-MEL-5 > 100 µM | SK-OV-3 > 100 µM | SNB-19 > 100 µM | SW-620 > 100 µM | TK-10 > 100 µM | UACC-257 > 100 µM

COc1cc(/C=C2\Sc3scc(-c4cccc([N+](=O)[O-])c4)[n+]3C2=O)cc(OC)c1OC
inactive: DU-145 15.2 µM | EKVX 12.4 µM | HOP-92 11.3 µM | Hs-578T 10.8 µM | K562 4.54 µM | KM12 17.8 µM | MCF7 4.15 µM | NCI-H226 5.2 µM | OVCAR-3 15.8 µM | OVCAR-5 20.8 µM | PC-3 21.4 µM | SF-268 11.8 µM | SK-MEL-5 6.1 µM | SK-OV-3 23.6 µM | SNB-19 16.7 µM | SW-620 9.1 µM | TK-10 10.7 µM | UACC-257 12.5 µM | UACC-62 11.3 µM

CN/N=C(/c1nc2ccc([N+](=O)[O-])cc2nc1O)C(O)c1ccc(C(O)/C(=N\NC)c2nc3ccc([N+](=O)[O-])cc3nc2O)cc1 (stereo not given)
inactive: EKVX > 100 µM | HOP-92 > 100 µM | K562 32.5 µM | KM12 > 100 µM | NCI-H226 > 100 µM | OVCAR-3 > 100 µM | OVCAR-5 > 100 µM | SF-268 > 100 µM | SK-MEL-5 > 100 µM | SK-OV-3 > 100 µM | SNB-19 > 100 µM | SW-620 82.8 µM | TK-10 > 100 µM | UACC-257 52.6 µM | UACC-62 44.9 µM

N#Cc1c(/C=C/c2ccccc2)c2c([nH]c1=S)CCCCC2
inactive: DU-145 > 100 µM | EKVX > 100 µM | HOP-92 > 100 µM | Hs-578T > 100 µM | K562 > 100 µM | KM12 75.5 µM | MCF7 > 100 µM | NCI-H226 > 100 µM | OVCAR-3 > 100 µM | OVCAR-5 > 100 µM | PC-3 > 100 µM | SF-268 > 100 µM | SK-MEL-5 > 100 µM | SK-OV-3 > 100 µM | SNB-19 > 100 µM | SW-620 > 100 µM | TK-10 > 100 µM | UACC-257 > 100 µM

O=C1C(=O)N(c2ccc(Cl)cc2)C(=O)C(=O)C1c1nc2ccccc2o1
inactive: EKVX > 100 µM | HOP-92 > 100 µM | K562 > 100 µM | KM12 > 100 µM | NCI-H226 > 100 µM | OVCAR-3 > 100 µM | OVCAR-5 > 100 µM | SF-268 > 100 µM | SK-MEL-5 > 100 µM | SK-OV-3 > 100 µM | SNB-19 > 100 µM | SW-620 > 100 µM | TK-10 > 100 µM | UACC-257 > 100 µM | UACC-62 > 100 µM

C=CC1(c2ccc(OC)cc2)OCCCO1
inactive: DU-145 > 100 µM | EKVX 15 µM | HOP-92 > 100 µM | Hs-578T > 100 µM | K562 > 100 µM | KM12 > 100 µM | MCF7 > 100 µM | NCI-H226 > 100 µM | OVCAR-3 > 100 µM | OVCAR-5 > 100 µM | PC-3 > 100 µM | SF-268 > 100 µM | SK-MEL-5 > 100 µM | SK-OV-3 > 100 µM | SNB-19 > 100 µM | SW-620 > 100 µM | TK-10 > 100 µM | UACC-257 > 100 µM | UACC-62 > 100 µM

CCOC(=O)c1cnc2oc3ccc(O)cc3c2c1C
inactive: DU-145 > 100 µM | EKVX 35 µM | HOP-92 > 100 µM | Hs-578T 35.2 µM | K562 > 100 µM | MCF7 > 100 µM | NCI-H226 > 100 µM | OVCAR-3 33.9 µM | OVCAR-5 > 100 µM | PC-3 > 100 µM | SK-MEL-5 69.3 µM | SK-OV-3 53.6 µM | SNB-19 > 100 µM | SW-620 > 100 µM | TK-10 57.4 µM | UACC-257 > 100 µM | UACC-62 > 100 µM
